Source: patent US20170166558A1, “O-GLCNAC TRANSFERASE (OGT) INHIBITORS AND USES THEREOF” (President and Fellows of Harvard College, priority 2014, published 2017)
“And” between values parts separate entries of the source, which are not always exact repeats. Equal values may be shown once. Blank lines part the entries; values can stand above or below the compound they belong to.

Key:
sOGT = target: T1, sOGT (Homo sapiens, UniProt O15294); assay: Fluorescence polarization displacement screen with fluorescein-linked UDP-GlcNAc analog; assay type: binding; conditions: fluorescence displacement in vitro assay; for IC50: read-out: IC50 (sOGT inhibition)
T1 sequence (O15294 1-665 isoform O15294-4): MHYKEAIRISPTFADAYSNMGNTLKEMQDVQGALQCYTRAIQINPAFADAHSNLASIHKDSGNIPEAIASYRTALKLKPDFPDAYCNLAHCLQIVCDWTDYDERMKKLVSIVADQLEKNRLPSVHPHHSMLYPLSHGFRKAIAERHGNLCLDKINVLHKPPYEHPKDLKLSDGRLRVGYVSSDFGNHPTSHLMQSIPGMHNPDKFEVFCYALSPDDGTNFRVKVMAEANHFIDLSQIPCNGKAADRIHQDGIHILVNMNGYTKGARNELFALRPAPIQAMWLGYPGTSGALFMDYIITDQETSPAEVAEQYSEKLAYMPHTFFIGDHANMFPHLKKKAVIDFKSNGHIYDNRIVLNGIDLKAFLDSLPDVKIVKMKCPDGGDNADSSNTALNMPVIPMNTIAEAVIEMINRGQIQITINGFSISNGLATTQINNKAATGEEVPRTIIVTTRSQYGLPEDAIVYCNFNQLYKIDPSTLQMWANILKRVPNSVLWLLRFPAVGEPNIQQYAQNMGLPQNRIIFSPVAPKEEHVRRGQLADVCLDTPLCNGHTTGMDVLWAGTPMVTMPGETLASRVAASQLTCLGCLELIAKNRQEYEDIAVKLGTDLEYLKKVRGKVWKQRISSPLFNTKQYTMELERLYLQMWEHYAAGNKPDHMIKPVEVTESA
Procedure: About 1000 compound library was serially diluted in DMSO from the 5 mg/ml plates fivefold 3 times, such that 4 different concentrations of compounds were prepared. Compound libraries of the 4 concentrations in duplicated were then transferred to the assay plates using a 100 nL pin array, resulting in a final compound concentration of 25 μg/mL or ˜70 μM at the highest of the four concentrations, assuming an average compound MW of 350. Using a Perkin Elmer Envision® microplate reader, the sample was excited at 480 nm in the vertical plane, and simultaneous emission intensity (535 nm) of the vertical and horizontal polarization planes was measured. The polarization was calculated using the following equation:eq4: mP=1000*(V−G*H)/(V+G*H)where: mP=millipolarization units, V=intensity of vertically polarized emission (RFU), H=intensity of horizontally polarized emission (RFU), and G=gain.
Compounds were screened at […] different concentrations in a fluorescence displacement assay (FIG. 13A)^27. Using the known binding constant for the substrate analog, the dose-response data allowed us to estimate binding affinities (Ki values) for the hits. […] Various analogs were prepared based on a modular assembly (as in FIG. 13B), and OGT inhibition was assessed both in vitro and in cells.

OGT in CHO cells = assay: Immunoblotting of global O-GlcNAcylation (RL2) in CHO cells; assay type: cell-based, Chinese hamster; conditions: 24 hours, up to 50 μM
Procedure: In vivo inhibition of glycosylation: For all immunoblotting experiments, CHO-K1 (CHO) cells were grown in F12-K media supplemented with 10% FBS and antibiotics at 37° C. in a 5% CO2 incubator. Cells were treated by adding indicated inhibitor in DMSO vehicle (0.5% final vehicle concentration) upon reaching 70% confluence. After indicated treatment length, cells were harvested by aspirating growth media and washing with ice cold 1× PBS. Cells were subsequently lysed in boiling 1% SDS/20 mM HEPES 7.9. After cooling to room temperature, 1 mM PMSF, 10 μM PUGNAC, 10 μM TMG and 1× Complete protease inhibitor cocktail were added to the solution. The mixture was sonicated and then subjected to a 5 minute incubation at 95° C. The samples were centrifuged for 15 minutes at 20,000×g and the supernatant was collected and the total protein was measured by BCA assay (BIO-RAD).
The sample was separated by SDS-PAGE (Bio-Rad 4-15%, Cat: 345-0028), transferred to a nitrocellulose membrane (iBlot, Invitrogen) and probed with the indicated antibody. Tyipcally, membranes were blocked with 4% BSA in 1× TBS+0.04% tween-20 for 1 hour before incubating with antibody (typically diluted 1:1000 in 4% BSA inlx TBS+0.04% tween-20) overnight at 4° C. Membranes were then washed three times with 1× TBS+0.04% tween-20 and incubated with secondary antibody (typically diluted 1:5000 in 4% BSA in 1× TBS+0.04% tween-20) for 1 hour at room temperature. Lastly, membranes were washed 3× with 1× TBS+0.04% tween-20 and imaged with ECL. D283-Med cells were treated as above but grown in F12-K media supplemented with 10% FBS and antibiotics. HEK, HeLa and LNCaP cells were treated as above but grown in RPMI media supplemented with 10% FBS and antibiotics.

ncOGT = target: T2, ncOGT (Homo sapiens, UniProt O15294); assay: Radiometric capture assay with Nup62 acceptor and UDP-14C-GlcNAc; assay type: biochemical
T2 construct: full length human OGT (ncOGT); made in house
T2 sequence (O15294 1-1046): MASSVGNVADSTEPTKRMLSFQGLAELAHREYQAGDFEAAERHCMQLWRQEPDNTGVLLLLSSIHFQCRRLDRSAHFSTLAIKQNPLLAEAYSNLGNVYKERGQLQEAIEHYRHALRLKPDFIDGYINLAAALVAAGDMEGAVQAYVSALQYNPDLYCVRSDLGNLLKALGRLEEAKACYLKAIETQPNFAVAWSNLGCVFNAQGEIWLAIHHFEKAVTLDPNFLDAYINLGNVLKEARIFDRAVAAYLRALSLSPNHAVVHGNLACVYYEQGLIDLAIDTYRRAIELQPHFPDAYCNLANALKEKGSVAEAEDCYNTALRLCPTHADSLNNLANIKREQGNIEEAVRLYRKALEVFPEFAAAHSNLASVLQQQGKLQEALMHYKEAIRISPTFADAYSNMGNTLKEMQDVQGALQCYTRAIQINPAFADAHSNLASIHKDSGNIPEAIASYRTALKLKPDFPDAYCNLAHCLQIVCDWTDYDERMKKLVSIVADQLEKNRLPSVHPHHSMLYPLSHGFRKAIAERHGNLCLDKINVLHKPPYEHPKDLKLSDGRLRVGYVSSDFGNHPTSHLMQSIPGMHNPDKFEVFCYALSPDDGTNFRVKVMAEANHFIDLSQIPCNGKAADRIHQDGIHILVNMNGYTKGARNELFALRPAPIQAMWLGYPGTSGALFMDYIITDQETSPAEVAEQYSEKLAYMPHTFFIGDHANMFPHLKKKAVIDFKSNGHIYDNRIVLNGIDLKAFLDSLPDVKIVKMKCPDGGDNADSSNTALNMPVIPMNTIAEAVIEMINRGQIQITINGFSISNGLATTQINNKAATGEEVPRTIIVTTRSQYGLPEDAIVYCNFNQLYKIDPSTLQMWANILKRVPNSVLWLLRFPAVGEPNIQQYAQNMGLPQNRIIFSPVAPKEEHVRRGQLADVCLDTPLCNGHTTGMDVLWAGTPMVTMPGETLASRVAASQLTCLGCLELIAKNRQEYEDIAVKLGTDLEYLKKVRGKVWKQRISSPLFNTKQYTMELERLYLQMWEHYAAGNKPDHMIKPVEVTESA
Procedure: Radiometric capture assay: Nucleoporin 62 (Nup62) was used as a model substrate. IC50 values of the both inhibitors were determined at range of 0 to 100 μM (eight point, duplicate). OGT antagonists were tested in a reaction mixture containing 18 μM Nup62, 6 μM UDP-^14C-GlcNAc, 100 nM ncOGT, and lx phosphate-buffered saline (1× PBS) (137 mM NaCl, 2.7 mM KCl, 10 mM Na2HPO4, and 1.8 mM KH2PO4, pH 7.4). The Nup62 glycosylation reactions were run for 15 min at 37° C. Reaction mixtures were subsequently quenched by spottinged on Whatman® Protran® nitrocellulose membrane, washed with 1× PBS three times for 15 minutes each. The membranes were air dried and then counted by liquid scintillation counting. The data were analyzed by Microsoft® Excel and Prism 6 (Graphpad®). Robust non-linear variable slope regressions were generated to determine the IC50 and Hill slope values.
In order to evaluate the mode of inhibition of OSMI-1 and UDP-5S-GlcNAc, a series of experiments, as outlined above, were performed with Nup62 as glycosylation substrate. The inhibition test of OSMI-1 was performed by varying the UDP-^14C-GlcNAc concentration from 0 to 0.25 mM while holding concentration of Nup62 constant at 10 μM with four different concentrations of OSMI-1 (0 to 2 μM) in 1× PBS with 100 nM ncOGT and with fixed and saturating concentrations of GST-Nup62 acceptor. The inhibition test of UDP-5S-GlcNAc was performed by varying the UDP-^14C-GlcNAc concentration from 0 to 1 mM while holding concentration of Nup62 constant at 10 μM with five different concentrations of UDP-5S-GlcNAc (0, 1, 5, 10, and 15 μM) in 1× PBS with 100 nM ncOGT. Each reaction was spotted on Whatman® grade P81 ion exchange chromatography paper circles, washed with 1× PBS three times for 15 minutes each. The membranes were air dried and then counted by liquid scintillation counting. Each assay was duplicated in parallel. The data were analyzed by Microsoft® Excel and Prism 6 (Graphpad®). The Michaelis-Menten plots and Ki of both inhibitors calculated under non-linear regression with competitive inhibition mode are shown in FIG. 5.

CHO cells = assay: ApoTox-Glo cell viability, cytotoxicity and apoptosis signaling assay; assay type: cell-based, Chinese hamster
Procedure: Cell viability, cytotoxicity and apoptosis signaling assays were performed in a 96-well plate using ApoTox-Glo reagent (Promega) according to the manufacturer's instructions.

[1] = target: T3, full length human OGT (ncOGT) (Homo sapiens, UniProt O15294); assay: UDP-Glo luminescence-based coupled enzyme assay; assay type: biochemical; conditions: 40 μM UDP-GlcNAc, 125 μM CKII3K peptide; read-out: IC50 against ncOGT, coupled enzyme assay
T3 construct: made in house
T3 sequence (O15294 1-1046): T2 sequence (O15294 1-1046)
Procedure: UDP-Glo assay: Materials for this assay were obtained from Promega (catalog #V6961), and the experiment was performed largely as outlined by the manufacturer. IC50 values were determined in the range of 0 to 100 μM (eleven concentration points). Assays were performed either in white, 96-well or ½-volume 96-well, plates. This assay was run with 125 μM CKII3K peptide acceptor. Reaction volumes were between 14 (half volume plates) and 20 (normal volume plates) μL. Reactions contained the following components: 300 nM ncOGT, 125 μM CKII3K and 40 μM UDP-GlcNAc in 1× PBS pH 7.4 supplemented with 1 mM THP. Reactions were incubated for one hour at 25° C. and quenched by the addition of an equal volume of UDP-Glo nucleotide detection reagent, prepared and used according to manufacturer guidelines. The quenched reactions were then mixed briefly by shaking at 1800 rpm in a Thermomixer C, and incubated for one hour at room temperature prior to reading luminescence, as per the manufacturers guidelines. Data were analyzed by Microsoft Excel and Prism 6 (Graphpad). When evaluating the effect of sugar donor concentration, this parameter was varied, while all other conditions remained as described above. Each sample in this case was run in duplicate, unless otherwise specified. The 40 μM curve in FIG. 16C has each point in quadruplicate. Similarly, there is an n=9 for each point in the OSMI-1 curve in FIG. 16B.

IC50 (sOGT): 7 µM
SMILES: CC(C)N(Cc1ccccc1)C(=O)[C@H](NS(=O)(=O)c1ccc2[nH]c(=O)ccc2c1)c1ccccc1

IC50 (sOGT): 10 µM
SMILES: O=C([C@H](NS(=O)(=O)c1ccc2[nH]c(=O)ccc2c1)c1ccccc1)N1CCN(c2ccccn2)CC1

IC50 (sOGT): 9 µM
SMILES: Cc1ccc(N2CCN(C(=O)[C@H](NS(=O)(=O)c3ccc4[nH]c(=O)ccc4c3)c3ccccc3)CC2)cc1

Ki (sOGT): 2 µM
SMILES: O=C([C@H](NS(=O)(=O)c1ccc2[nH]c(=O)ccc2c1)c1ccccc1)N1CCC(Cc2ccccc2)CC1

SMILES: O=C([C@@H](Cc1ccccc1)NS(=O)(=O)c1ccc2[nH]c(=O)ccc2c1)N(Cc1ccco1)Cc1cccs1 [PG34, (R)—N-(furan-2-ylmethyl)-2-(2-oxo-1,2-dihydroquinoline-6-sulfonamido)-3-phenyl-N-(thiophen-2-ylmethyl)propanamide]
Effect on global O-GlcNAcylation (OGT in CHO cells): no reduction in global O-GlcNAc levels
In vitro inhibitory activity against OGT (ncOGT; radiometric capture assay): poor in vitro inhibitory activity against OGT
Effect on cell viability (CHO cells): affected cell viability similarly to OSMI-1
Apoptotic signaling (CHO cells; up to 50 μM): Neither compound displayed an effect on apoptotic signaling

IC50 [1]: 78.8 µM
IC50 (ncOGT; 6 μM UDP-GlcNAc, 18 μM GST-Nup62): 11 µM and 11.1 µM
Ki (ncOGT; non-linear regression, competitive inhibition fit, Nup62 substrate, read-out: Inhibition constant (Ki)): 5 µM
SMILES: CC(=O)N[C@@H]1C(OP(=O)(O)OP(=O)(O)OC[C@H]2O[C@@H](n3ccc(=O)[nH]c3=O)[C@H](O)[C@@H]2O)SC(CO)C(O)[C@@H]1O (some centres unmarked) [UDP-5SGlcNAc, reference compound]
